Measured values: a melting point compilation (Tetko et al.; mined from patent text by program, amines drawn as free bases though some values may be those of a salt)

Row | melting point | Compound
1 | 150 to 152 °C | Cc1nc2cccc3n(CC4CCN(S(=O)(=O)C(F)(F)F)CC4)c(=O)c1n23
2 | 80 to 82 °C | CN(C)CCNC(=O)c1cc(Oc2ccc3c(C(=O)Nc4cccc(C(F)(F)F)c4)cccc3c2)ccn1
3 | 233 to 234 °C | CN1C(=O)SC(Cc2cn(-c3ccccc3)nc2O)C1=O (stereo not given)
4 | 177 to 179 °C | CC(C)On1c(C(C)C)nc2c(N)nc3ccccc3c21
5 | 139 to 140 °C | Cc1cc(C(=O)N2Cc3cccn3Cc3ccccc32)ccc1C1=CCC2CC1C2(C)C (stereo not given)
6 | 144 to 145 °C | O=C(NC(C(=O)O)C(=O)O)OCc1ccccc1
7 | 111 to 113 °C | CCCCCCCCCCCCc1ccc(CCC(COC(C)=O)(COC(C)=O)NC(C)=O)cc1
8 | 96 °C | Nc1nn(CCN2CCCCC2)cc1-c1ccccc1
9 | 106 °C | Fc1cc(F)c(-c2c(Cl)nc3nc(SCc4ccccc4)nn3c2Cl)c(F)c1
10 | 109 to 114 °C | O=C(C1CC1)N1CCN(C(=O)c2cc(C(F)(F)F)cc(C(F)(F)F)c2)[C@H](Cc2c[nH]c3ccccc23)C1
11 | 128 to 129 °C | CCOP(=O)(Cc1ccc(NC(=O)CCCc2cnoc2-c2ccccc2)cc1)OCC
12 | 53 to 54 °C | C=CCOc1ccc2nc(OCC=C(C)C)ccc2c1
13 | 128 °C | O=S(=O)(OCC1OC2CC(CC(OS(=O)(=O)c3ccc(Br)cc3)C2)O1)c1ccc(Br)cc1 (stereo not given)
14 | 109 to 110 °C | CON=C(C(=O)OC)c1ccccc1Oc1ccccc1
15 | 64 to 65 °C | CCCCOC(=O)CN(C(=O)C(F)(F)F)C(NC(C)C)P(=O)(O)OSCC (stereo not given)
16 | 280 to 281 °C | O=Cc1cccc2c1[nH]c1c3cc(Br)ccc3oc21
17 | 163 to 164 °C | CCOC(=O)c1cn(-c2ccc(Cl)cn2)cn1
18 | 146 to 147 °C | O=c1ccoc2c1ccc1ncccc12
19 | 135 to 137 °C | CCCn1c(=O)c(C=C(C#N)C#N)c2n(c1=O)CCS2
20 | 158 to 161 °C | O=C(CCCCC1CCSS1)Nc1nc(=S)ss1 (stereo not given)
21 | 134 to 135 °C | CCOC(Nc1ccccc1)(OCC)C1(Cl)C=C(C)N=C(C(=O)c2ccc(Cl)cc2)C1 (stereo not given)
22 | 135 to 137 °C | CC(CCCl)C(=O)Nc1cc(C(C)(C)C)no1 (stereo not given)
23 | 149 to 151 °C | CC(=O)c1cc(Oc2ccc(NC(=O)Nc3ccccc3C(F)(F)F)cc2)ncn1

Row | melting point | Compound
24 | 167 to 168 °C | COc1cc(COc2nn(-c3ccccc3)cc2C#N)ccc1OCc1nc(-c2ccco2)oc1C
25 | 37 to 39 °C | CN(CC(O)c1ccc(C=O)cc1)C(=O)OC(C)(C)C (stereo not given)
26 | 200 to 201 °C | Cc1ccccc1-c1cc(N2CCS(=O)(=O)CC2)ncc1N(C)C(=O)C(C)(C)c1cc(C(F)(F)F)cc(C(F)(F)F)c1
27 | 109 to 113 °C | COC(=O)CCc1cc2cc(Br)ccc2n1S(=O)(=O)c1ccccc1
28 | 97 to 98 °C | COC(=O)C(C)(C)Cc1c(SC(C)(C)C)c2ccc(OC)cc2n1C
29 | 189 to 192 °C | O=c1c(Br)cc(-c2ccncn2)cn1Cc1ccccc1
30 | 201 to 203 °C | CCn1ncc2c(NCC3(O)CCCCC3)c3cc(OC)ccc3nc21
31 | 108 to 109 °C | OC1(c2cncs2)CCCc2cc(Cl)ccc21 (stereo not given)
32 | 98 to 98.5 °C | CCCC(=O)NCCc1c[nH]c2cc(Cl)c(OC)cc12
33 | 55 to 57 °C | O=C(COc1ccccc1)COc1ccccc1
34 | 56 to 57 °C | COC(=O)C(=O)c1ccc(Cl)cc1
35 | 72.5 to 74 °C | CCOC(=O)c1c(C(F)(F)F)nc(C(F)(F)F)c(C)c1OCC
36 | 150 °C | COc1ccc(S(N)(=O)=O)cc1C(=O)NC1CCN(CC2CC2)C1 (stereo not given)
37 | 123 to 125 °C | CCCCCCCCC=CCCCCCCCC(=O)CCCNC(=O)CCNC(C)=O
38 | 171 to 172 °C | Cc1ccn(-c2ccc(C(=O)N3Cc4cccn4Cc4ccccc43)c(Cl)n2)n1
39 | 81 to 82 °C | CCOP(=O)(OCC)C(O)c1cccc(F)c1 (stereo not given)
40 | 167 to 168 °C | CCn1c(Nc2cc(Cl)ccc2Cl)nc(C(F)(F)F)cc1=O
41 | 121 to 122 °C | CCOC(OCC)c1cc(NC(c2ccccc2)(c2ccccc2)c2ccccc2)c(F)c(C2CCC2)n1
42 | 141 to 143 °C | CC#CCC(CC#CC)(C(=O)O)S(=O)(=O)c1ccc(OC)cc1
43 | 181 to 183 °C | Cc1c(NC(=O)c2ccc(-c3ccc(Cl)cc3)cc2F)ccc2cc(CN3CCCC3)cnc12
44 | 148 to 150 °C | C[C@H](OC(=O)NCC(F)(F)C(F)(F)F)C(=O)N[C@@H]1C(=O)N(C)c2cc(F)ccc2O[C@@H]1C
45 | 96.5 to 98.5 °C | CCC1(OC)CCc2c(C)c(O)c(C)c(C)c2O1 (stereo not given)
46 | 216 °C | O=C(O)C(c1ccccc1)C1CCN(c2ccc([N+](=O)[O-])cc2)CC1 (stereo not given)

Row | melting point | Compound
47 | 105 to 108 °C | O=C1Cc2c(Cl)cccc2Sc2ccc(C(F)(F)F)cc21
48 | 212 to 213 °C | CC(=O)N1c2ccc(C#N)cc2C(Nc2ccc(Cl)cc2)CC1C (stereo not given)
49 | 84.9 to 88.7 °C | Cc1ccccc1C(=O)N1CCC(=O)c2cc(F)c(Cl)cc21
50 | 78 to 80 °C | CCOC(=O)COc1ccc(N)cc1C(F)(F)F
51 | 132 to 136 °C | COC(=O)c1cc(CS(=O)c2ccccc2)cnc1C1=NC(C)(C(C)C)C(=O)N1 (stereo not given)
52 | 145 to 146 °C | NC(=O)CC(O)(Cn1cncn1)C(F)(F)C(F)(F)C(F)(F)C(F)(F)F (stereo not given)
53 | 107 to 108 °C | CC(C)CCCC(C)C1CCC2C3CCC4CC(OC=O)CCC4(C)C3CCC12C (stereo not given)
54 | 219 °C | CCS(=O)(=O)c1ccc(-c2cc(-c3nc(N)sc3-c3cccc(C)n3)ccn2)cc1
55 | 70 °C | O=C(O)c1ccccc1OCCNC(=O)C1Cc2ccccc2N1S(=O)(=O)c1ccc(-c2cccc(C(F)(F)F)c2)cc1 (stereo not given)
56 | 106 to 108 °C | CC(Br)c1ccc(-c2onc3ccccc23)cc1 (stereo not given)
57 | 75 °C | COc1ccc2c(c1)-c1c(ccn1C[C@@H](C)O)C2
58 | 236 to 239 °C | CC(=O)c1c(C)[nH]c(-c2ccncc2)c1-c1ccncc1
59 | 173 to 174 °C | CN(C)c1cc(-c2c[nH]cn2)ccn1
60 | > 260 °C | Cn1cncc1C(=O)NCc1cccc2c1C(=O)N(C1CCC(=O)NC1=O)C2=O (stereo not given)
61 | 170 °C | COCCOc1ccc(CCNC(=O)c2cnc3ccccc3c2)cc1S(N)(=O)=O
62 | 218 to 220 °C | CCCC1=C(C#N)C(c2cccc(C#N)c2Br)c2c[nH]nc2N1C (stereo not given)
63 | 125 to 127 °C | FC(F)(F)Oc1ccc(C=Cc2nc[nH]n2)cc1
64 | 74 to 75 °C | CCOC(=O)COc1cccc2c1CCc1sc(O)nc1-2
65 | 195 to 196 °C | O=[N+]([O-])c1ccc(NN=C(Cl)c2ccccc2)cc1
66 | > 350 °C | O=C1NC(=O)c2c1c(O)nc1cc(Cl)ccc21
67 | 107 to 109 °C | CCc1nc(/C=C/c2cccc(Cl)c2Cl)no1
68 | 174 to 175 °C | CCOC(=O)C1=C[C@H](NC(=O)OC(C)(C)C)[C@@H](NC(C)=O)[C@@H]2OC(C)(C)O[C@H]12
69 | 185 to 188 °C | CN1C(=O)C2CC(c3ccc([N+](=O)[O-])cc3)(C2)C1=O

Row | melting point | Compound
70 | 44 to 46 °C | CCc1c(CCC(=O)OC)ccc2c1OCO2
71 | 130 °C | COc1ccc(NC(=O)C2CCc3c(OCc4ccccc4)cccc32)c(OC)c1 (stereo not given)
72 | 130 to 133 °C | Cc1ccc(C(=O)COC(=O)NC(C)C)cc1
73 | 192 °C | O=C(O)Cc1cccc2c(-c3ccccc3)nccc12
74 | 192 to 196 °C | Cc1[nH]c2cc(C(=O)c3ccccc3)ccc2c1C=O
75 | 101 to 104 °C | O=C(c1cccs1)c1cnn2c(-c3cccc(NCC4CCCCC4)c3)ccnc12
76 | 216 to 217 °C | Cc1ccc(C(=O)Oc2c(N3CCCC3)c(=O)n(-c3ccccc3)c3ncccc23)cc1
77 | 211 to 215 °C | COC(=O)Nc1cnc2ccc(Sc3ccccc3)cn12
78 | 48 to 50 °C | CC(Cl)OC(=O)C=Cc1cc(N=C=O)ccc1Cl (stereo not given)
79 | 90 to 91 °C | CCOC(=O)c1cccnc1NC(=O)Cc1cccc(Oc2ccccc2)c1
80 | 144 to 145 °C | CC(=O)N(C)C(Cc1ccccc1N)c1ccc(C)s1 (stereo not given)
81 | 218 to 220 °C | Cc1[nH]c(=O)c(C#N)cc1-c1ccccc1OCCCC(=O)O
82 | 216 to 218 °C | Cc1nn(C)c2c(Nc3ccc(S(C)(=O)=O)cc3)nc(-c3ccc(F)cc3)nc12
83 | 135 to 138 °C | COC(=O)c1ccc(S(C)(=O)=O)c(-c2nccs2)c1Cl
84 | 151 to 153 °C | CC(C)(C)OC(=O)NC1COCCCC=CC2CC2(C(=O)NS(=O)(=O)C2CC2)NC(=O)C2CC(OC(=O)Nc3ccccc3Oc3ccccc3)CN2C1=O (stereo not given)
85 | 147 to 148 °C | Cc1cccc(C)c1CNc1cc(Br)cc2c1nc(C)n2COCc1ccccc1
86 | 156 to 158 °C | COc1cccc2cc(CN(C)CCNC(=O)C34CC5CC(CC(C5)C3)C4)oc12
87 | 93 °C | CCCCCCCCCCCc1ncc(C(=O)O)s1
88 | 82 to 86 °C | CCOc1ccc(C2C(=O)Oc3ccc(C)cc32)cc1 (stereo not given)
89 | 184 to 186 °C | Cc1cc(-c2cccc(NC(=O)C3CC3)c2)n2ncc(C(=O)c3cccs3)c2n1
90 | 220 to 221 °C | ON=Cc1ccc2c(c1)ncn2-c1cccc(-c2ccncn2)c1
91 | 138 °C | Cn1cnnc1C(OCCO)(c1ccc(F)cc1)c1cc2c3c(c1)c(-c1cccc(Cl)c1)cc(=O)n3CC2 (stereo not given)
92 | 136 to 137 °C | O=C(Nc1c([N+](=O)[O-])cnn1-c1c(Cl)cc(C(F)(F)F)c(Cl)c1Cl)C(F)(F)F

Row | Compound | melting point
93 | CN(C)CCc1nc2cccnc2[nH]1 | 109 to 112 °C
94 | FC(F)(F)Oc1ccc2nc(Cc3cn4ccsc4n3)[nH]c2c1 | 177 to 179 °C
95 | CC(C)(C)NCC(O)c1cc(Br)c(N)c([N+](=O)[O-])c1 (stereo not given) | 151 to 152 °C
96 | NCCc1ccc(OCc2ccccc2)cc1 | 58.7 to 59.6 °C
97 | CCOP(=O)(OCC)N1CCN(c2cc3c(cc2F)c(=O)c(C(=O)O)cn3C2CC2)CC1 | 192 to 193 °C
98 | CCCCn1ccc(C(=O)c2cc(C(C)(C)C)c(O)c(C(C)(C)C)c2)c1 | 101 to 103 °C
99 | CC1(C)CCC(C)(C)c2cc(-c3cc(CO)cc(-c4ccc(C(=O)O)cc4)c3)ccc21 | 213 °C
100 | COc1ccc2c(c1)C13CCN(C)C(C2)C1(OC(C)=O)CCOC3 (stereo not given) | 161 to 163 °C
